In paper PMC4289246, “Dose-dependent effects of lesogaberan on reflux measures in patients with refractory gastroesophageal reflux disease: a randomized, placebo-controlled study” (BMC Gastroenterology, 2014):
Read-outs that look alike come from different tables or passages of the source.

Tests used:
[1] = system: patients with GERD who had a partial response to PPI treatment; assay: GERD symptoms recorded by data logger and diary card during 24-h measurement; assay type: in vivo, human
Procedure: (§1) Impedance–pH readings were analysed by one investigator (JP) using dedicated software (BioVIEW Analysis®, version 5.5.4; Sandhill Scientific Inc.) and were then checked manually. This was performed in a blinded manner and the results were used to determine the number of reflux episodes, defined as a period when impedance decreased to less than 50% of baseline (liquid episode) or increased to more than 150% of baseline (gas episode), propagating […] from the most distal channel. Acid, weakly acid and non-acid reflux episodes were defined as episodes lasting longer than 5 s with a pH of < 4, 4.0–6.5 and > 6.5, respectively. The decision to use a cautious cut-off pH of 6.5 was taken in order to ensure that no measurements near to a pH of 7 would be erroneously categorized as weakly acidic. These definitions have previously been employed for studies of this type. During the 24-h period of ambulatory impedance–pH measurement, patients used a data logger and a diary card to record their meal intake and periods in supine position, as well as any GERD symptoms.

[2] = Plasma pharmacokinetics of lesogaberan during 24-h dosing; assay type: in vivo, human; details: for AUC(0-t) / Cmax / Tmax: human, oral, plasma; for AUC(0-t): modified-release capsules, read-out: AUC (0–24 h), geometric mean
Procedure: Blood samples were taken 1 h before the first administration of each dose, and at regular intervals during the 24-h period after the first administration of each dose, to assess the concentration of lesogaberan in plasma over time. […]

[3] = system: patients with GERD who had a partial response to PPI treatment; assay: 24-h impedance–pH measurement of reflux variables, crossover vs placebo; assay type: in vivo, human; details: for Difference in geometric mean, number of reflux episodes in supine position / Difference in geometric mean, number of reflux episodes in upright position / Difference in geometric mean, number of weakly acid reflux episodes / Difference in geometric mean, number of acid reflux episodes / Difference in geometric mean, number of mixed gas/liquid reflux episodes / Difference in geometric mean, number of pure liquid reflux episodes / Difference in geometric mean, proportion of time with esophageal pH < 4 / Difference in geometric mean, proportion of time with intragastric pH < 4 / Difference in geometric mean, proximal extent of reflux (cm) / Difference in geometric mean, total number of reflux episodes: relative to placebo; for Difference in geometric mean, number of weakly acid reflux episodes: pH 4.0–6.5; for Difference in geometric mean, number of weakly acid reflux episodes / Difference in geometric mean, number of acid reflux episodes / Difference in geometric mean, number of mixed gas/liquid reflux episodes / Difference in geometric mean, number of pure liquid reflux episodes / Difference in geometric mean, proportion of time with esophageal pH < 4 / Difference in geometric mean, proportion of time with intragastric pH < 4 / Difference in geometric mean, proximal extent of reflux (cm) / Difference in geometric mean, total number of reflux episodes: upright or supine; for Difference in geometric mean, number of acid reflux episodes: pH < 4
Procedure: This was a randomized, double-blind, placebo-controlled, four-way crossover, phase 2a study. Patients were randomized to receive one of 10 treatment sequences each consisting of placebo and three of the four different lesogaberan doses (30, 90, 120 and 240 mg). These were given on different days, each separated by a 7–28-day washout period. […] Each dose was given twice over a 24-h period in the form of modified-release capsules: one taken 1 h before breakfast after fasting the night before, and the other taken 1 h before dinner. (Note that patients fasted overnight before each study period: no food after 22:00 and no fluids after 24:00.) Treatment with patients’ usual, regular and optimized dose of PPI was continued throughout the study.
Impedance–pH measurements were taken for 24 h after the first administration of each dose using a Sleuth® multichannel intraluminal impedance ambulatory system (Sandhill Scientific, Inc., Highlands Ranch, CO, USA). This device includes a data logger, impedance–pH amplifiers, and a catheter consisting of two antimony pH sensors (calibrated before and after recordings were taken using standard pH 7 and pH 1 buffers) placed 5 cm above and 10 cm below the lower esophageal sphincter (LES) and eight impedance electrodes placed 2, 4, 6, 8, 10, 14, 16 and 18 cm above the LES. The electrodes are paired to measure impedance at 3, 5, 7, 9, 15 and 17 cm above the LES. The position of the LES was located by a manometric recording before the study medication or placebo was given.
as §1
The effect of each dose of lesogaberan was measured as the proportional difference, relative to placebo, in the geometric mean of the reflux variables assessed over 24 h. The analysis was based on a mixed-effect model with treatment, period and sequence as fixed effects and patient as a random effect. Geometric means and relative differences in geometric means were reported with 95% CIs. A p value of < 0.05 was considered to indicate statistical significance and no corrections for multiple testing were performed. Multiplicity was accounted for by using a step-down sequential procedure comparing lesogaberan doses with placebo, starting at a 240 mg dose and, in the event of rejection of the null hypothesis, comparison of descending doses.

[4] = parameters: method as in PMID 21410297; details: approximately; cited from earlier work
[5] = system: patients with a partial response to PPI treatment; parameters: method as in PMID 21402616; details: 65 mg twice daily add-on to PPIs, phase 2a; placebo 8%; cited from earlier work
[6] = system: partial responders to PPI treatment; parameters: method as in earlier work; details: cited from earlier work
[7] = 30 mg twice in 24 h, add-on to PPI
[8] = 90 mg twice in 24 h, add-on to PPI
[9] = 120 mg twice in 24 h, add-on to PPI
[10] = 240 mg twice in 24 h, add-on to PPI

For NC[C@@H](F)C[PH](=O)O [lesogaberan, (R)-(3-amino-2-fluoropropyl) phosphinic acid], the “median number of symptoms reported during dosing” value (“median number” for short) ([1]; 30 mg twice in 24 h) was 1.0 symptom, the “median number” value ([1]; 90 mg twice in 24 h) was 1.0 symptom and the “median number” value ([1]; 120 mg twice in 24 h) was 0 symptoms. The “median number” value ([1]; 240 mg twice in 24 h) was 0.5 symptoms, the “fraction of peak concentration (Cmax) remaining at the end of the wash-out period” value ([2]; 7–28-day washout, estimated from half-life) was at most 0.01% and the AUC(0-t) ([2]; 30 mg twice in 24 h, patients) was 5.25 µM·h. The AUC(0-t) ([2]; 90 mg twice in 24 h, patients) was 17.3 µM·h, the AUC(0-t) ([2]; 120 mg twice in 24 h, patients) was 22.2 µM·h and the AUC(0-t) ([2]; 240 mg twice in 24 h, patients) was 46.9 µM·h. The Cmax ([2]; 30 mg, evening dose, patients, read-out: C max evening, geometric mean) was 420 nM, the Tmax ([2]; 30 mg, evening dose, patients, read-out: t max evening, geometric mean) was 2.2 h and the Cmax ([2]; 30 mg, morning dose, patients, read-out: C max morning, geometric mean) was 350 nM. The Tmax ([2]; 30 mg, morning dose, patients, read-out: t max morning, geometric mean) was 1.7 h, the Cmax ([2]; 90 mg, evening dose, patients, read-out: C max evening, geometric mean) was 1680 nM and the Tmax ([2]; 90 mg, evening dose, patients, read-out: t max evening, geometric mean) was 1.9 h. It also gave a Cmax ([2]; 90 mg, morning dose, patients, read-out: C max morning, geometric mean) of 1300 nM, a Tmax ([2]; 90 mg, morning dose, patients, read-out: t max morning, geometric mean) of 1.7 h and a Cmax ([2]; 120 mg, evening dose, patients, read-out: C max evening, geometric mean) of 2210 nM. It also gave a Tmax ([2]; 120 mg, evening dose, patients, read-out: t max evening, geometric mean) of 1.9 h, a Cmax ([2]; 120 mg, morning dose, patients, read-out: C max morning, geometric mean) of 1480 nM and a Tmax ([2]; 120 mg, morning dose, patients, read-out: t max morning, geometric mean) of 1.9 h. For the same compound, the Tmax ([2]; 240 mg, all four doses (30, 90, 120, 240 mg), morning and evening, read-out: geometric mean tmax) was 1.7 to 2.6 h, the Cmax ([2]; 240 mg, evening dose, patients, read-out: C max evening, geometric mean) was 4180 nM and the Tmax ([2]; 240 mg, evening dose, patients, read-out: t max evening, geometric mean) was 2.6 h. The Cmax ([2]; 240 mg, morning dose, patients, read-out: C max morning, geometric mean) was 3310 nM, the Tmax ([2]; 240 mg, morning dose, patients, read-out: t max morning, geometric mean) was 1.7 h and the “Difference in geometric mean, number of reflux episodes in supine position” value (“Difference … in supine position” below) [3, 7] was -37.3%. For the same compound, the “Difference in geometric mean, number of reflux episodes in upright position” value (“Difference … in upright position” for short) [3, 7] was -25.2%, the “Difference in geometric mean, number of weakly acid reflux episodes” value (shortened to “Difference … of weakly acid reflux episodes”) [3, 7] was -28.3% and the “Difference in geometric mean, number of acid reflux episodes” value (“Difference … of acid reflux episodes” below) [3, 7] was -34.7%. For the same compound, the “Difference in geometric mean, number of mixed gas/liquid reflux episodes” value (shortened to “Difference … of mixed gas/liquid reflux episodes”) [3, 7] was -25.0%, the “Difference in geometric mean, number of pure liquid reflux episodes” value (“Difference … of pure liquid reflux episodes” for short) [3, 7] was -27.9% and the “Difference in geometric mean, proportion of time with esophageal pH < 4” value (shortened to “Difference … with esophageal pH < 4”) [3, 7] was -69.8%. The “Difference in geometric mean, proportion of time with intragastric pH < 4” value (“Difference … with intragastric pH < 4” below) [3, 7] was “+40.4%”, the “Difference in geometric mean, proximal extent of reflux (cm)” value (“Difference in geometric mean … (cm)” below) [3, 7] was -39.1% and the “Difference in geometric mean, total number of reflux episodes” value [3, 7] was -26.2%. The “reduction in the mean number of pure liquid reflux episodes relative to placebo” value [3, 8] was 53.0%, the “reduction in the mean number of total reflux episodes relative to placebo” value [3, 8] was “approximately 37%” and the “Difference … in supine position” value [3, 8] was -12.3%. The “Difference … in upright position” value [3, 8] was -38.4%, the “Difference … of weakly acid reflux episodes” value [3, 8] was -31.4% and the “Difference … of acid reflux episodes” value [3, 8] was -45.5%. The “Difference … of mixed gas/liquid reflux episodes” value [3, 8] was -28.3%, the “Difference … of pure liquid reflux episodes” value [3, 8] was -53.0% and the “Difference … with esophageal pH < 4” value [3, 8] was -56.1%. The “Difference … with intragastric pH < 4” value [3, 8] was “+23.7%”, the “Difference in geometric mean … (cm)” value [3, 8] was -58.9% and the “Difference in geometric mean, total number of reflux episodes” value [3, 8] was -37.0%. For the same compound, the “reduction in the mean number of pure liquid reflux episodes relative to placebo” value [3, 9] was 44.1%, the “Difference … in supine position” value [3, 9] was -31.2% and the “Difference … in upright position” value [3, 9] was -46.1%. The “Difference … of weakly acid reflux episodes” value [3, 9] was -44.5%, the “Difference … of acid reflux episodes” value [3, 9] was -57.9% and the “Difference … of mixed gas/liquid reflux episodes” value [3, 9] was -42.5%. For the same compound, the “Difference … of pure liquid reflux episodes” value [3, 9] was -44.1%, the “Difference … with esophageal pH < 4” value [3, 9] was -65.7% and the “Difference … with intragastric pH < 4” value [3, 9] was “+3.6%”. For the same compound, the “Difference in geometric mean … (cm)” value [3, 9] was -66.3%, the “Difference in geometric mean, total number of reflux episodes” value [3, 9] was -45.0% and the “reduction in the mean number of pure liquid reflux episodes relative to placebo” value [3, 10] was 51.9%. The “Difference … in supine position” value [3, 10] was -69.1%, the “Difference … in upright position” value [3, 10] was -50.7% and the “Difference … of weakly acid reflux episodes” value [3, 10] was -45.1%. For the same compound, the “Difference … of acid reflux episodes” value [3, 10] was -57.1%, the “Difference … of mixed gas/liquid reflux episodes” value [3, 10] was -56.7% and the “Difference … of pure liquid reflux episodes” value [3, 10] was -51.9%. The “Difference … with esophageal pH < 4” value [3, 10] was -73.0%, the “Difference … with intragastric pH < 4” value [3, 10] was “+27.7%” and the “Difference in geometric mean … (cm)” value [3, 10] was -63.3%. For the same compound, the “Difference in geometric mean, total number of reflux episodes” value [3, 10] was -52.8%, the “effect on mean number of pure gas reflux episodes relative to placebo” value ([3]; 30, 90, 120, 240 mg twice in 24 h, data not shown) was “No significant effect” and the “effect on mean number of non-acid reflux episodes relative to placebo” value ([3]; 30, 90, 120, 240 mg twice in 24 h, pH > 6.5, data not shown) was “No significant effect”. The “reduction relative to placebo in the mean number of reflux episodes, supine position” value ([3]; highest dose (240 mg) twice in 24 h, add-on to PPI) was 69.1%, the pharmacological half-life [4] was 11–13 h and the “proportion of responders (max one 24-h period with heartburn and/or regurgitation of not more than mild intensity during last 7 treatment days)” value [5] was 16%. For the same compound, the “effect on GERD symptoms” value ([6]; 240 mg, phase 2b, partial responders to PPI treatment) was “does not have a clinically important effect on GERD symptoms” and the “patients with reversible elevated alanine transaminase levels >5 times the upper limit of normal” value ([6]; phase 2b study) was 6 patients.
